Assay results taken from patent publication US4820721A, “1-aryl-5-(2-oxo-1-pyrrolidinyl)-1,2,3-triazolines as novel anticonvulsants” (priority 1988, dated 1989).

Key:
[1] = Phase I anticonvulsant activity (MES and scMet tests); format: in vivo; settings: Mus musculus, male albino mice, read-out: Activity, Phase I (active dose)
Experimental: They afford protection in both the scMet and MES seizure models. The 1-p-chlorophenyl-5-(2-oxo-1-pyrrolidinyl)-1,2,3-triazoline is active in the 100 mg/kg dose and the 1-phenyl-5-(2-oxo-1-pyrrolidinyl)-1,2,3-triazoline is active in the 300 mg/kg dose.
(§1) The anticonvulsant activity was evaluated by subjecting male albino mice to the MES test and the scMet test. The maximal electroshock seizure test (MES) was performed according to the method of Swinyard et al (J. Pharmacol. Exp. Ther. 106, 319, 1952), and abolition of the hind limb tonic extensor component of the maximal seizures was defined as protection. In the subcutaneous pentylenetetrazole seizure threshold test (scMet), 85 mg/kg of pentylenetetrazol was administered as a 0.5% solution subcutaneously in the posterior midline, and failure to observe even a threshold seizure (a single episode of clonic spasms of at least 5-s duration) was defined as protection.

[2] = maximal electroshock seizure (MES) test; format: in vivo; settings: Mus musculus; Phase II; male albino mice
Experimental: as §1

[3] = subcutaneous pentylenetetrazole (Metrazole) seizure threshold (scMet) test; format: in vivo; settings: Mus musculus, sc; Phase II; male albino mice; 85 mg/kg pentylenetetrazol s.c.
Experimental: as §1

in vivo = assay: in vivo; design: species or system mice; settings: mouse
Experimental: Neurotoxicity was evaluated by the rotorod ataxia test (Dunham et al, J. Am. Pharm. Assoc. Sci. Ed., 46, 208, 1957). The animal was placed on a wooden rod of 2.8-cm diameter rotating at 6 rpm. Normal mice can remain on a rod rotating at this speed indefinitely.

SMILES	minimal effective dose [1] [mg/kg]	ED50 [2] [mg/kg]	ED50 [3] [mg/kg]	TD50 (in vivo) [mg/kg]
O=C1CCCN1C1CN=NN1c1ccccc1 (centres unmarked) [1-phenyl-5-(2-oxo-1-pyrrolidinyl)-1,2,3-triazoline]	300			
O=C1CCCN1C1CN=NN1c1ccc(Cl)cc1 (centres unmarked) [1-p-chlorophenyl-5-(2-oxo-1-pyrrolidinyl)-1,2,3-triazoline]	100	116	77.2	249
